Source: paper PMC9151520 (Archives of Toxicology, 2022)
pEC50: −log10 of the molar value. Several values for one entry are separate records, joined by “and”; a condition that tells them apart may be missing. Identical values can stand only once. Like-named read-outs stand apart in the source and are kept apart here.

Assays:
p53RE-bla HCT-116 cells [1] = test system: p53RE-bla HCT-116 cells
[2] = test system: p53 signaling (p53RE-bla HCT-116 cells); assay: cells; format: cell-based; settings: for pEC50 / Emax: Homo sapiens
[3] = test system: p53 signaling (p53RE-bla HCT-116 cells)
[4] = test system: p53 signaling (p53RE-bla HCT-116 cells); remark: listed apart in the source
p53RE-bla HCT-116 cells [5] = assay: cells; settings: Homo sapiens
[6] = read-out: EC50, viability, cherry pick confirmation
[7] = read-out: EC50, viability, primary screening
[8] = HCT-116, read-out: EC50, p53 activation, cherry pick confirmation
[9] = HCT-116, read-out: EC50, p53 activation, primary screening
[10] = HCT-116, read-out: Efficacy, p53 activation, cherry pick confirmation
[11] = HCT-116, read-out: Efficacy, p53 activation, primary screening
[12] = HCT-116, read-out: EC50, viability, cherry pick confirmation
[13] = HCT-116, read-out: EC50, viability, primary screening
[14] = HCT-116, read-out: p53 activation EC50, cherry pick confirmation
[15] = HCT-116, read-out: p53 activation EC50, primary screening
[16] = HCT-116, read-out: p53 activation efficacy, cherry pick confirmation
[17] = HCT-116, read-out: p53 activation efficacy, primary screening
[18] = HCT-116, read-out: Viability EC50, cherry pick confirmation

| Compound | pEC50 (p53RE-bla HCT-116 cells [1]; [6]) | pEC50 (p53RE-bla HCT-116 cells [1]; [7]) | pEC50 [2, 8] | pEC50 [2, 9] | Emax [2, 10] [%] | Emax [2, 11] [%] | EC50, p53 activation, cherry pick confirmation [3] | EC50, p53 activation, primary screening [3] | Efficacy, p53 activation, cherry pick confirmation [3] | Efficacy, p53 activation, primary screening [3] | EC50, p53 activation, cherry pick confirmation [4] | EC50, p53 activation, primary screening [4] | Efficacy, p53 activation, cherry pick confirmation [4] | Efficacy, p53 activation, primary screening [4] | pEC50 (p53RE-bla HCT-116 cells [5]; [12]) | pEC50 (p53RE-bla HCT-116 cells [5]; [13]) | Viability EC50, cherry pick confirmation (p53RE-bla HCT-116 cells [1]) | pEC50 [2, 14] | pEC50 [2, 15] | Emax [2, 16] [%] | also measured |
| --- | --- | --- | --- | --- | --- | --- | --- | --- | --- | --- | --- | --- | --- | --- | --- | --- | --- | --- | --- | --- | --- |
| CC1=CC(=O)c2ccccc2C1=O [Menadione] | 4.37 | 4.37 and 4.33 | 4.79 | 4.39 | 33.9 | 31.2 | inactive | inactive | inactive | inactive | inactive | inactive | inactive | inactive | 4.44 | 4.29 | – | – | – | – | – |
| O=Nc1ccc(Nc2ccccc2)cc1 [4-Nitrosodiphenylamine] | – | – | – | – | – | – | – | – | – | – | – | – | – | – | – | – | inactive | 4.56 | 4.32 | 84.9 | Viability EC50, primary screening (p53RE-bla HCT-116 cells [1]): inactive; Viability efficacy, primary screening (p53RE-bla HCT-116 cells [1]): inactive; pEC50 (p53RE-bla HCT-116 cells [1]; read-out: Viability EC50, cherry pick confirmation): 4.44; Emax [2, 17]: 61.2%; p53 activation EC50, cherry pick confirmation [3]: inactive; p53 activation EC50, primary screening [3]: inactive; p53 activation efficacy, cherry pick confirmation [3]: inactive; p53 activation efficacy, primary screening [3]: inactive; p53 activation EC50, cherry pick confirmation [4]: inactive; p53 activation EC50, primary screening [4]: inactive; p53 activation efficacy, cherry pick confirmation [4]: inactive; p53 activation efficacy, primary screening [4]: inactive; pEC50 (p53RE-bla HCT-116 cells [5]; [18]): 4.39 |
| Oc1c(Cl)cc(Cl)c(Cl)c1Cc1c(O)c(Cl)cc(Cl)c1Cl [Hexachlorophene] | – | – | – | – | – | – | – | – | – | – | – | – | – | – | – | – | inactive | 4.75 | 4.70 | 99.6 | Emax [2, 17]: 45.4%; p53 activation EC50, cherry pick confirmation [3]: inactive; p53 activation EC50, primary screening [3]: inactive; p53 activation efficacy, cherry pick confirmation [3]: inactive; p53 activation efficacy, primary screening [3]: inactive; p53 activation EC50, cherry pick confirmation [4]: inactive; p53 activation EC50, primary screening [4]: inactive; p53 activation efficacy, cherry pick confirmation [4]: inactive; p53 activation efficacy, primary screening [4]: inactive; pEC50 (p53RE-bla HCT-116 cells [5]; [18]): 5.65 |
| Oc1c(I)cc(I)cc1I [2,4,6-Triiodophenol] | – | – | – | 4.68 | – | 27.1 | inactive | inactive | inactive | inactive | inactive | inactive | inactive | inactive | – | 4.72 | – | – | – | – | EC50, viability, cherry pick confirmation (p53RE-bla HCT-116 cells [1]): inactive; EC50, viability, primary screening (p53RE-bla HCT-116 cells [1]): inactive; EC50, p53 activation, cherry pick confirmation [2]: inactive; Efficacy, p53 activation, cherry pick confirmation [2]: inactive |
| CN(C)c1ccc(C(=C2C=CC(=[N+](C)C)C=C2)c2ccc(N(C)C)cc2)cc1 [Gentian Violet] | 4.56 and 4.67 | 4.80 and 4.60 | 4.63 | 4.29 | 48.7 | 65.5 | inactive | inactive | inactive | inactive | inactive | inactive | inactive | inactive | 4.66 | 4.53 | – | – | – | – | – |
| CC(C)(c1cc(Br)c(O)c(Br)c1)c1cc(Br)c(O)c(Br)c1 [3,3',5,5'-Tetrabromobisphenol A] | – | 4.46 and 4.34 | – | 4.52 | – | 91.5 | inactive | inactive | inactive | inactive | inactive | inactive | inactive | inactive | – | 4.47 | – | – | – | – | EC50, p53 activation, cherry pick confirmation [2]: inactive; Efficacy, p53 activation, cherry pick confirmation [2]: inactive |
